Data from ChEMBL document CHEMBL1909046, “DrugMatrix in vitro pharmacology data”.

Experiments:
[1] = target: cGMP-specific 3',5'-cyclic phosphodiesterase (Homo sapiens, UniProt O76074); assay: DRUGMATRIX: Phosphodiesterase PDE5 enzyme inhibition (substrate: [3H]cGMP + cGMP); type: tissue-based; conditions: platelet; Not Active = under 50% inhibition at 10 µM
Adenosine receptor A2a = Adenosine receptor A2a (Homo sapiens, UniProt P29274); assay: DRUGMATRIX: Adenosine A2A radioligand binding (ligand: […]); type: cell membranes, Membrane; conditions: hek293; Not Active = under 50% inhibition at 10 µM
[2] = target: T1, Muscarinic acetylcholine receptor M5 (Homo sapiens, UniProt P08912); type: cell membranes, CHO-K1, Membrane; note: in other assays of this panel Not Active means under 50% inhibition at 10 µM
T1 sequence (P08912 whole entry): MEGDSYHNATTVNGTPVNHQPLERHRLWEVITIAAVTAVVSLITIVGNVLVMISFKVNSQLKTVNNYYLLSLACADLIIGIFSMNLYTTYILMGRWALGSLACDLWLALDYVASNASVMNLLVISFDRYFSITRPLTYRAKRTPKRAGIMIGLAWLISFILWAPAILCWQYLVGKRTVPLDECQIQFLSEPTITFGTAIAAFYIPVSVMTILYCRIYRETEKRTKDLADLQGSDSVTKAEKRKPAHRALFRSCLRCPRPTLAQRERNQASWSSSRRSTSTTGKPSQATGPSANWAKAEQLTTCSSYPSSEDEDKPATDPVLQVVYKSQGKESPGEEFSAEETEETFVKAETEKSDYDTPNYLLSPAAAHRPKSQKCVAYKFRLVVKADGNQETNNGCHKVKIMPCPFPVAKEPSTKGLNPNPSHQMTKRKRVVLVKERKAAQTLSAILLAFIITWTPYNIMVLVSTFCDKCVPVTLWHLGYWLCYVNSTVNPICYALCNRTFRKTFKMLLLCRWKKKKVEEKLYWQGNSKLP

[3] = DRUGMATRIX: Calcium Channel Type L, Phenylalkylamine radioligand binding (ligand: [3H] (-)-Desmethoxyverapamil (D-888)); type: cell membranes, Rattus norvegicus, Wistar, Brain, Membrane; conditions: Not Active = under 50% inhibition at 10 µM
[4] = DRUGMATRIX: GABAA, Chloride Channel, TBOB radioligand binding (ligand: [3H] TBOB); type: cell membranes, Rattus norvegicus, Wistar, Cerebral cortex, Membrane; conditions: Not Active = under 50% inhibition at 10 µM
[5] = DRUGMATRIX: Leukotriene, BLT (LTB4) radioligand binding (ligand: [3H]LTB4); type: cell membranes, Membrane; conditions: u-937; Not Active = under 50% inhibition at 10 µM
[6] = DRUGMATRIX: Potassium Channel [KATP] radioligand binding (ligand: [3H] Glyburide); type: cell membranes, Membrane; conditions: hit-t15; Not Active = under 50% inhibition at 10 µM

Sequence of Adenosine receptor A2a (P29274 whole entry): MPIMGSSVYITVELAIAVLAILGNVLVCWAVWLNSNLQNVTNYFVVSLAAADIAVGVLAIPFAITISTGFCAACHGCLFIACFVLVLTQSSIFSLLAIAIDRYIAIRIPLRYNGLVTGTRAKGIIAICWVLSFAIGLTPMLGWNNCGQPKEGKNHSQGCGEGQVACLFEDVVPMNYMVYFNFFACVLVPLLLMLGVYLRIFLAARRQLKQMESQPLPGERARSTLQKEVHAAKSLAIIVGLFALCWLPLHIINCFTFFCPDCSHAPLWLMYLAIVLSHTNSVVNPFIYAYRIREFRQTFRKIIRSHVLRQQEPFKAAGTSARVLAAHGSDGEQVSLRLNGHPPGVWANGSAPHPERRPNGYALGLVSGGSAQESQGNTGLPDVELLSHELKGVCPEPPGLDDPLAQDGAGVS

Row | Compound | IC50 [1] | IC50 (Adenosine receptor A2a) | IC50 ([2]; cho-k1) | IC50 [3] | Ki [3] | IC50 [4] | Ki [4] | IC50 [5] | Ki [5] | IC50 [6] | Ki [6] | IC50 ([3]; read-out: IC50) [nM] | Ki ([3]; read-out: Ki) [nM] | IC50 ([2]; read-out: IC50) [nM] | Ki ([2]; read-out: Ki) [nM] | Ki [1] | Ki (Adenosine receptor A2a) | Ki ([2]; cho-k1)
1 | COCCc1ccc(OCC(O)CNC(C)C)cc1 (configuration not stated) [METOPROLOL] | Not Active | Not Active | Not Active | Not Active | Not Active | Not Active | Not Active | Not Active | Not Active | Not Active | Not Active |  |  |  |  |  |  | 
2 | CCn1cc(C(=O)O)c(=O)c2cc(F)c(N3CCNCC3)cc21 [NORFLOXACIN] | Not Active | Not Active | Not Active | Not Active | Not Active | Not Active | Not Active | Not Active | Not Active | Not Active | Not Active |  |  |  |  |  |  | 
3 | NC1=NC(=O)C(c2ccccc2)O1 (configuration not stated) [PEMOLINE] | Not Active | Not Active | Not Active | Not Active | Not Active | Not Active | Not Active | Not Active | Not Active | Not Active | Not Active |  |  |  |  |  |  | 
4 | Nc1nc2c(ncn2CCC(CO)CO)c(=O)[nH]1 [PENCICLOVIR] | Not Active | Not Active | Not Active | Not Active | Not Active | Not Active | Not Active | Not Active | Not Active | Not Active | Not Active |  |  |  |  |  |  | 
5 | C=C(C)C1(O)OC(=O)C=C1OC (configuration not stated) [PENICILLIC ACID] | Not Active | Not Active | Not Active | Not Active | Not Active | Not Active | Not Active | Not Active | Not Active | Not Active | Not Active |  |  |  |  |  |  | 
6 | CC1(C)S[C@@H]2[C@H](NC(=O)Cc3ccccc3)C(=O)N2[C@H]1C(=O)O [PENICILLIN G] | Not Active | Not Active | Not Active | Not Active | Not Active | Not Active | Not Active | Not Active | Not Active | Not Active | Not Active |  |  |  |  |  |  | 
7 | CCCN1C[C@H](CSC)C[C@@H]2c3cccc4[nH]cc(c34)C[C@H]21 [PERGOLIDE] | Not Active | Not Active | Not Active |  |  | Not Active | Not Active | Not Active | Not Active | Not Active | Not Active | 913 | 887 |  |  |  |  | 
8 | C1CCC(C(CC2CCCCN2)C2CCCCC2)CC1 (configuration not stated) [PERHEXILINE] | Not Active | Not Active |  |  |  | Not Active | Not Active | Not Active | Not Active | Not Active | Not Active | 1350 | 1310 | 1090 | 785 |  |  | 
9 | CCOc1ccc(NC(C)=O)cc1 [PHENACETIN] | Not Active | Not Active | Not Active | Not Active | Not Active | Not Active | Not Active | Not Active | Not Active | Not Active | Not Active |  |  |  |  |  |  | 
10 | Cc1ccc(N(CC2=NCCN2)c2cccc(O)c2)cc1 [PHENTOLAMINE] | Not Active | Not Active | Not Active |  |  | Not Active | Not Active | Not Active | Not Active | Not Active | Not Active | 746 | 725 |  |  |  |  | 
11 | CNNCc1ccc(C(=O)NC(C)C)cc1 [PROCARBAZINE] | Not Active | Not Active | Not Active | Not Active | Not Active | Not Active | Not Active | Not Active | Not Active | Not Active | Not Active |  |  |  |  |  |  | 
12 | CN(C)CCCN1c2ccccc2Sc2ccccc21 [PROMAZINE] | Not Active | Not Active |  |  |  | Not Active | Not Active | Not Active | Not Active | Not Active | Not Active | 1190 | 1160 | 64 | 46 |  |  | 
13 | CC(O)CO (configuration not stated) [PROPYLENE GLYCOL] | Not Active | Not Active | Not Active | Not Active | Not Active | Not Active | Not Active | Not Active | Not Active | Not Active | Not Active |  |  |  |  |  |  | 
14 | CADMIUM ACETATE | Not Active | Not Active | Not Active | Not Active | Not Active | Not Active | Not Active | Not Active | Not Active | Not Active | Not Active |  |  |  |  | Not Active | Not Active | Not Active
15 | LEAD (II) ACETATE | Not Active | Not Active | Not Active | Not Active | Not Active | Not Active | Not Active | Not Active | Not Active | Not Active | Not Active |  |  |  |  | Not Active | Not Active | Not Active
16 | LIPOPOLYSACCHARIDE E. COLI O55:B5 | Not Active | Not Active | Not Active | Not Active | Not Active | Not Active | Not Active | Not Active | Not Active | Not Active | Not Active |  |  |  |  | Not Active | Not Active | Not Active
